≈ marks a conversion by molar mass, not a printed value.
Legend:
Experiment in all cases: antimicrobial activity, broth dilution method
Format in all cases: cell-based
[1] = test system: Staphylococcus aureus SMITH; settings: Staphylococcus aureus SMITH, broth dilution; for MIC: Staphylococcus aureus, read-out: minimum inhibitory concentration (MIC)
Description: (§1) Antimicrobial activity of the new antibiotics according to the present invention was measured on various pathogenic microorganisms by the broth dilution mehtod. Tab. […] The new antibiotics show a similar antimicrobial spectrum to that of tylosin as shown in Tab. 4. All the compounds have an excellent antimicrobial activity mainly on gram-positive bacteria. […] Test microorganisms with an asterisk mark (*) in Tab. 4 are all drug-resistant strains that were clinically isolated. More in detail, Staphylococcus aureus MS-8710 is resistant to tylosin, penicillin, tetracycline, erythromycin and leucomycin. Staphylococcus aureus MS-9931 is resistant to tylosin, penicillin, erythromycin, tetracycline, leucomycin, spiramycin and josamycin. And also Streptococcus piogenes is resistant to tylosin, erythromycin, oleandomycin and leucomycin.

[2] = test system: Staphylococcus aureus MS-9937; settings: Staphylococcus aureus MS-9937, drug-resistant clinical isolate; for MIC: MS9937, read-out: minimum inhibitory concentration (MIC)
Description: as §1

[3] = test system: Staphylococcus aureus MS-9931; settings: Staphylococcus aureus MS-9931, drug-resistant clinical isolate; for MIC: MS9931, read-out: minimum inhibitory concentration (MIC)
Description: as §1

Sarcina lutea ATCC 9341 = settings: for MIC: Micrococcus luteus, ATCC9341, Sarcina lutea ATCC 9341, read-out: minimum inhibitory concentration (MIC)
Description: as §1

[4] = test system: Streptococcus pyogenes MH-771; settings: for MIC: Streptococcus pyogenes, MH771, Streptococcus pyogenes MH-771, drug-resistant clinical isolate, read-out: minimum inhibitory concentration (MIC)
Description: as §1

[5] = test system: Staphylococcus aureus FDA-209P; settings: Staphylococcus aureus FDA-209P, broth dilution; for MIC: Staphylococcus aureus, FDA209P, read-out: minimum inhibitory concentration (MIC)
Description: as §1

[6] = test system: Bacillus cereus ATCC 9634; settings: broth dilution; for MIC: Bacillus cereus, ATCC9634, Bacillus cereus ATCC 9634, read-out: minimum inhibitory concentration (MIC)
Description: as §1

[7] = test system: Staphylococcus aureus MS-8710; settings: for MIC: Staphylococcus aureus, MS8710, Staphylococcus aureus MS-8710, drug-resistant clinical isolate, read-out: minimum inhibitory concentration (MIC)
Description: as §1

Structure (SMILES) | MIC [1] [µg/mL] | MIC [2] [µg/mL] | MIC [3] [µg/mL] | MIC (Sarcina lutea ATCC 9341) [µg/mL] | MIC [4] [µg/mL] | MIC [5] [µg/mL] | MIC [6] [µg/mL] | MIC [7] [µg/mL] | minimum inhibitory concentration (MIC) [1] [µg/mL] | minimum inhibitory concentration (MIC) [2] [µg/mL] | minimum inhibitory concentration (MIC) [3] [µg/mL] | minimum inhibitory concentration (MIC) (Sarcina lutea ATCC 9341; Sarcina lutea ATCC 9341) [µg/mL] | minimum inhibitory concentration (MIC) ([4]; Streptococcus pyogenes MH-771, drug-resistant clinical isolate) [µg/mL] | minimum inhibitory concentration (MIC) [5] [µg/mL] | minimum inhibitory concentration (MIC) ([6]; Bacillus cereus ATCC 9634) [µg/mL] | minimum inhibitory concentration (MIC) ([7]; Staphylococcus aureus MS-8710, drug-resistant clinical isolate) [µg/mL]
CCCC(C)C(=O)OC1C(C)OC(OC2C(C)OC(OC3C(CC=O)CC(C)C(=O)C=CC(C)=CC(COC4OC(C)C(O)C(OC)C4OC)C(CC)OC(=O)CC(O)C3C)C(O)C2N(C)C)CC1(C)O (stereo not drawn) [Compound 12, 4"-α-methyl-n-valeryltylosin] | 1.56 (≈ 1.54 µM) | 25 (≈ 24.6 µM) | 100 (≈ 98.6 µM) | 0.39 (≈ 0.385 µM) | 6.25 (≈ 6.16 µM) | 1.56 (≈ 1.54 µM) | 0.78 (≈ 0.769 µM) | 25 (≈ 24.6 µM) |  |  |  |  |  |  |  | 
CCC(CC)C(=O)OC1C(C)OC(OC2C(C)OC(OC3C(CC=O)CC(C)C(=O)C=CC(C)=CC(COC4OC(C)C(O)C(OC)C4OC)C(CC)OC(=O)CC(OC(C)=O)C3C)C(O)C2N(C)C)CC1(C)O (stereo not drawn) [Compound 13, 3-acetyl-4"-α-ethyl-n-butyryltylosin] | 0.78 (≈ 0.738 µM) | 25 (≈ 23.7 µM) | 25 (≈ 23.7 µM) | 0.19 (≈ 0.18 µM) | 12.5 (≈ 11.8 µM) | 0.39 (≈ 0.369 µM) | 0.78 (≈ 0.738 µM) | 25 (≈ 23.7 µM) |  |  |  |  |  |  |  | 
CCC1OC(=O)CC(O)C(C)C(OC2OC(C)C(OC3CC(C)(O)C(OC(=O)Cc4ccc([N+](=O)[O-])cc4)C(C)O3)C(N(C)C)C2O)C(CC=O)CC(C)C(=O)C=CC(C)=CC1COC1OC(C)C(O)C(OC)C1OC (stereo not shown) [Compound 14, 4"-(4-nitrophenyl)acetyltylosin] | 0.39 (≈ 0.361 µM) | 6.25 (≈ 5.79 µM) | 6.25 (≈ 5.79 µM) | 0.19 (≈ 0.176 µM) | 3.13 (≈ 2.9 µM) | 0.39 (≈ 0.361 µM) | 0.39 (≈ 0.361 µM) | 6.25 (≈ 5.79 µM) |  |  |  |  |  |  |  | 
CCC1OC(=O)CC(OC(C)=O)C(C)C(OC2OC(C)C(OC3CC(C)(O)C(OC(=O)C(C)c4ccccc4)C(C)O3)C(N(C)C)C2O)C(CC=O)CC(C)C(=O)C=CC(C)=CC1COC1OC(C)C(O)C(OC)C1OC (stereo not drawn) [Compound 15, 3-acetyl-4"-α-phenylpropionyltylosin] | 0.39 (≈ 0.358 µM) | 25 (≈ 22.9 µM) | 25 (≈ 22.9 µM) | 0.19 (≈ 0.174 µM) | 12.5 (≈ 11.5 µM) | 0.39 (≈ 0.358 µM) | 0.78 (≈ 0.715 µM) | 25 (≈ 22.9 µM) |  |  |  |  |  |  |  | 
CCC(C(=O)OC1C(C)OC(OC2C(C)OC(OC3C(CC=O)CC(C)C(=O)C=CC(C)=CC(COC4OC(C)C(O)C(OC)C4OC)C(CC)OC(=O)CC(O)C3C)C(O)C2N(C)C)CC1(C)O)c1ccccc1 (stereo not drawn) [Compound 16, 4"-α-phenyl-n-butyryltylosin] | 0.39 (≈ 0.367 µM) | 12.5 (≈ 11.8 µM) | 25 (≈ 23.5 µM) | 0.19 (≈ 0.179 µM) | 6.25 (≈ 5.88 µM) | 0.39 (≈ 0.367 µM) | 0.78 (≈ 0.734 µM) | 12.5 (≈ 11.8 µM) |  |  |  |  |  |  |  | 
CCC1OC(=O)CC(OC(C)=O)C(C)C(OC2OC(C)C(OC3CC(C)(O)C(OC(=O)C(OC(C)=O)c4ccccc4)C(C)O3)C(N(C)C)C2O)C(CC=O)CC(C)C(=O)C=CC(C)=CC1COC1OC(C)C(O)C(OC)C1OC [Compound 19, 3-acetyl-4"-D-(α-acetoxyphenylacetyl)tylosin] | 0.78 (≈ 0.688 µM) | 100 (≈ 88.2 µM) | 100 (≈ 88.2 µM) | 0.78 (≈ 0.688 µM) | 25 (≈ 22 µM) | 1.56 (≈ 1.38 µM) | 0.78 (≈ 0.688 µM) | 100 (≈ 88.2 µM) |  |  |  |  |  |  |  | 
CCC1OC(=O)CC(OC(C)=O)C(C)C(OC2OC(C)C(OC3CC(C)(O)C(OC(=O)C(OC(C)=O)c4ccccc4)C(C)O3)C(N(C)C)C2O)C(CC=O)CC(C)C(=O)C=CC(C)=CC1COC1OC(C)C(O)C(OC)C1OC [Compound 20, 3-acetyl-4"-L-(α-acetoxyphenylacetyl)tylosin] |  |  |  |  |  |  |  |  | 1.56 (≈ 1.38 µM) | 100 (≈ 88.2 µM) | 100 (≈ 88.2 µM) | 0.39 (≈ 0.344 µM) | 12.5 (≈ 11 µM) | 0.78 (≈ 0.688 µM) | 1.56 (≈ 1.38 µM) | 50 (≈ 44.1 µM)
CCC1OC(=O)CC(OC(C)=O)C(C)C(OC2OC(C)C(OC3CC(C)(O)C(OC(=O)C(OC(C)=O)c4ccc(OC(C)=O)cc4)C(C)O3)C(N(C)C)C2O)C(CC=O)CC(C)C(=O)C=CC(C)=CC1COC1OC(C)C(O)C(OC)C1OC (stereo not drawn) [Compound 21, 3-acetyl-4"-[α-acetoxy-(4-acetoxyphenyl)acetyl]tylosin] | 0.78 (≈ 0.654 µM) | 50 (≈ 41.9 µM) | 50 (≈ 41.9 µM) | 0.39 (≈ 0.327 µM) | 12.5 (≈ 10.5 µM) | 0.78 (≈ 0.654 µM) | 0.78 (≈ 0.654 µM) | 50 (≈ 41.9 µM) |  |  |  |  |  |  |  | 

From patent US4205163A, “Tylosin derivatives” (Sanraku-Ocean Co., Ltd., priority 1977, dated 1980)
